Columns and labels:
Prostate Carcinoma = assay: Clinical experimental trials in Cuba, voluntary patients: prostate carcinoma; type: in vivo, human; conditions: 10% tannic acid
Excerpt: (§1) The following clinical data was collected on voluntary patients during clinical experimental trials in Cuba. A 10% concentration of tannic acid was used in all of the clinical studies set forth below.

Breast carcinoma = assay: Clinical experimental trials in Cuba, voluntary patients: breast carcinoma; type: in vivo, human; conditions: for clinical outcome: terminal
Excerpt: as §1

Colon Carcinoma = assay: Clinical experimental trials in Cuba, voluntary patients: colon carcinoma; type: in vivo, human
Excerpt: as §1

Carcinoma of the uterus = assay: Clinical experimental trials in Cuba, voluntary patients: carcinoma of the uterus; type: in vivo, human; conditions: for clinical outcome: one year
Excerpt: as §1

[1] = test system: Acute Lymphocytic Leukemia; assay: Clinical experimental trials in Cuba, voluntary patients: acute lymphocytic leukemia; type: in vivo, human; conditions: for time to relapse after completion of therapy: leukemia cells encysted in the testes
Excerpt: as §1

[2] = test system: Cancerous Lesion of the Tongue; assay: Clinical experimental trials in Cuba, voluntary patients: cancerous lesion of the tongue; type: in vivo, human; conditions: Patient #10, conventional treatment ineffective; 3 months at stage 1 dosage
Excerpt: as §1

Carcinoma of penis = assay: Clinical experimental trials in Cuba, voluntary patients: carcinoma of penis; type: in vivo, human; conditions: Patient #11, metastasized, terminal; maximum levels after surgery, one year
Excerpt: as §1

Hodgkin's Lymphoma = assay: Clinical experimental trials in Cuba, voluntary patients: Hodgkin's lymphoma; type: in vivo, human; conditions: Patient #14, chemotherapy discontinued, considered terminal; one year
Excerpt: as §1

Monoblastic Leukemia = assay: Clinical experimental trials in Cuba, voluntary patients: monoblastic leukemia; type: in vivo, human; conditions: Patient #17, no improvement with chemotherapy; maximum levels, one year
Excerpt: as §1

[3] = test system: Liposarcoma of the right thigh; assay: Clinical experimental trials in Cuba, voluntary patients: liposarcoma; type: in vivo, human; conditions: Patient #18, two unsuccessful operations; maximum levels, one year
Excerpt: as §1

Multiple Myelomas = assay: Clinical experimental trials in Cuba, voluntary patients: multiple myelomas; type: in vivo, human
Excerpt: as §1

[4] = test system: Hypernephroma (Cancer of Kidney); assay: Clinical experimental trials in Cuba, voluntary patients: hypernephroma; type: in vivo, human
Excerpt: as §1

Carcinoma of the Bladder = assay: Clinical experimental trials in Cuba, voluntary patients: carcinoma of the bladder; type: in vivo, human
Excerpt: as §1

[5] = test system: 12-O-tetradecanoyl-phorbol-13-acetate (TPA) effects in mouse epidermis; conditions: applied topically to mouse skin; cited from earlier work
[6] = test system: skin tumors promoted by TPA; conditions: two-step initiation-promotion protocol; cited from earlier work
HeLa cells = conditions: cited from earlier work; for cell growth: in vitro, dose dependently
Raji lymphoma cells = conditions: cited from earlier work; for cell growth: in vitro, dose dependently
[7] = test system: epidermal PAH metabolism, PAH-induced skin tumorigenesis; conditions: applied topically to Sencar mice; cited from earlier work

O=C(OC[C@H]1O[C@@H](OC(=O)c2cc(O)c(O)c(OC(=O)c3cc(O)c(O)c(O)c3)c2)[C@H](OC(=O)c2cc(O)c(O)c(OC(=O)c3cc(O)c(O)c(O)c3)c2)[C@@H](OC(=O)c2cc(O)c(O)c(OC(=O)c3cc(O)c(O)c(O)c3)c2)[C@@H]1OC(=O)c1cc(O)c(O)c(OC(=O)c2cc(O)c(O)c(O)c2)c1)c1cc(O)c(O)c(OC(=O)c2cc(O)c(O)c(O)c2)c1 [tannic acid]
clinical outcome (Prostate Carcinoma; Patient #1, inoperative, maximum dosage, first treatment period three months): Cancer was cured
catheter removal (Prostate Carcinoma; Patient #1, two weeks after initiation of therapy): catheter was removed
clinical outcome (metastatic growth after surgery) (Breast carcinoma; Patient #2, after surgery on left breast, minimal 3 month period, 10% tannic acid): No additional cancerous growths were detected anywhere in their body
tumor size (Breast carcinoma; Patient #3, tumor 5 cms by 5 cms, no surgery, maximum levels, after first three month interval, 10% tannic acid): Tumor diminished in size after first three month interval to the point where it was very difficult to detect by manual examination
long-term outcome (Breast carcinoma; Patient #3, therapy continued for one year): Cancer never returned to this day
clinical outcome (Breast carcinoma; Patient #6, metastasis in skeletal system, lungs and liver, maximum therapy, one year): they were cured of cancer in all organs
clinical outcome at end of therapy (Breast carcinoma; Patient #15, left mammary gland removed, one year): no cancer was detected
clinical outcome (Breast carcinoma; Patient #16, metastasis in both lungs and lymph nodes, maximum levels, one and one half year): the Doctor declared patient cured
regular checkups (Colon Carcinoma; Patient #4, maximum therapy along with chemotherapy): all have been negative
blood work (Colon Carcinoma; Patient #4, maximum therapy simultaneously with 72 chemotherapy dosages): normal
clinical outcome (Colon Carcinoma; Patient #9, tumor not removed, no chemotherapy or radiation, maximum level, one year): Tumor disappeared and has not returned
clinical outcome (Carcinoma of the uterus; Patient #5, metastatic growth throughout internal organs, terminal, maximum levels): They were cured of the cancer throughout their body
clinical outcome (Carcinoma of the uterus; Patient #7, refused further radiation, maximum dosage, no other treatments): Semi-annual checkups reveal no relapse
outcome of readministered therapy (Carcinoma of the uterus; Patient #15, carcinoma of the uterus discovered two years after first therapy, readministered one year): They were cured of uterine cancer
outcome of first therapy period ([1]; Patient #8, terminal, one year at maximum dosage): Patient initially showed signs of being cured
time to relapse after completion of therapy ([1]; Patient #8): two
outcome of readministered therapy ([1]; Patient #8, year long treatment period after relapse): patient was cured
time to relapse after completion of therapy ([1]; Patient #12): about 2 years
outcome of first therapy period ([1]; Patient #12, maximum level, one year): Patient initially showed signs of being cured
outcome of readministered therapy ([1]; Patient #12, readministered for one year after relapse): Patient was cured and subsequent check-ups have been negative
overall bloodwork ([1]; Patient #13, no improvement with prior chemotherapy): immediately overall bloodwork returned to normal parameters
clinical outcome [2]: The lesion healed and the tissue of the tongue was restored to normal
clinical outcome (Carcinoma of penis): They have had no relapse and is cured of the cancer
clinical outcome (Hodgkin's Lymphoma): they were cured of disease
clinical outcome (Monoblastic Leukemia): They were cured of monoblastic Leukemia and has had no relapse
clinical outcome [3]: They were cured of cancer, and has had no relapse
X-rays at the end of the therapy (Multiple Myelomas; Patient #19, metastasis in hips and ribs, maximum levels, three month period, no other therapy): actual regeneration of skeletal tissue and structure
time to death of Myeloma after stopping treatment (Multiple Myelomas; Patient #19, refused treatment after three months): four
skeletal finding ([4]; Patient #20, metastasis in lungs and ribs, terminal, maximum levels, after 20 days of therapy): regeneration of ribs had occurred
functional status ([4]; Patient #20, after one month of therapy): the patient had returned to normal daily activities
survival after therapy ([4]; Patient #20, therapy discontinued at three months): two
carcinoma size by cystoscopic exam (Carcinoma of the Bladder; Patient #21, refused surgery, maximum dosage, first three month check-up): the carcinoma had diminished in size
clinical outcome (Carcinoma of the Bladder; Patient #21, at 10 months): declared cured of cancer
TPA-induced DNA synthesis [5]: inhibited
TPA-induced hydroperoxide production [5]: inhibited
TPA-induced ornithine decarboxylase activity [5]: inhibited
incidence and yield of skin tumors promoted by TPA [6]: inhibited
cell growth (HeLa cells; HeLa): inhibited
potency relative to gallic acid (HeLa cells; HeLa): twice as potent as its monomer gallic acid
potency relative to gallic acid (Raji lymphoma cells): twice as potent as its monomer gallic acid
cell growth (Raji lymphoma cells): inhibited
PAH-DNA adduct formation [7]: substantial inhibition
PAH-induced skin tumorigenesis [7]: substantial inhibition
epidermal PAH metabolism [7]: substantial inhibition

O=c1oc2c(O)c(O)cc3c(=O)oc4c(O)c(O)cc1c4c23 [ellagic acid, reference compound]
TPA-induced DNA synthesis [5]: inhibited
TPA-induced hydroperoxide production [5]: inhibited
TPA-induced ornithine decarboxylase activity [5]: inhibited
incidence and yield of skin tumors promoted by TPA [6]: inhibited

O=C(/C=C/c1ccc(O)c(O)c1)c1ccc(O)cc1O [Butein]
growth inhibition (HeLa cells; 10 microM, cell line not stated, more effective on HeLa cells): 30%

CC1=C(/C=C/C(C)=C/C=C/C(C)=C/CO)C(C)(C)CCC1 [Retinol, reference compound]
cell proliferation (HeLa cells; 100 microM, HeLa): inhibited cell proliferation completely
cell proliferation (Raji lymphoma cells; 100 microM): inhibited cell proliferation completely

O=C(O)c1cc(O)c(O)c(O)c1 [gallic acid, reference compound]
cell growth (HeLa cells; HeLa): inhibited
cell growth (Raji lymphoma cells): inhibited
